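Abbreviation: GI50, concentration required for 50% inhibition of growth. TGI denotes the concentration required for complete inhibition of growth.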
What was measured:
Experiment in all cases: growth of human tumour cells (NCI), 384-well format
SNB-19 CNS = system: SNB-19 CNS
MOLT-4 leukemia = system: MOLT-4 leukemia
BT-549 breast = system: BT-549 breast
MDA-MB-231 breast = system: MDA-MB-231 breast
HCT-15 colon = system: HCT-15 colon
CAKI-1 renal = system: CAKI-1 renal
NCI-H322M lung = system: NCI-H322M lung
NCI-H23 lung = system: NCI-H23 lung
SNB-75 CNS = system: SNB-75 CNS
UO-31 renal = system: UO-31 renal
KM12 colon = system: KM12 colon
ACHN renal = system: ACHN renal
MCF7 breast = system: MCF7 breast

Compound | GI50 (SNB-19 CNS) [µM] | TGI (SNB-19 CNS) [µM] | GI50 (MOLT-4 leukemia) [µM] | TGI (MOLT-4 leukemia) [µM] | GI50 (BT-549 breast) [µM] | TGI (BT-549 breast) [µM] | GI50 (MDA-MB-231 breast) [µM] | TGI (MDA-MB-231 breast) [µM] | GI50 (HCT-15 colon) [µM] | TGI (HCT-15 colon) [µM] | GI50 (CAKI-1 renal) [µM] | TGI (CAKI-1 renal) [µM] | GI50 (NCI-H322M lung) [µM] | TGI (NCI-H322M lung) [µM] | GI50 (NCI-H23 lung) [µM] | TGI (NCI-H23 lung) [µM] | GI50 (SNB-75 CNS) [µM] | TGI (SNB-75 CNS) [µM] | GI50 (UO-31 renal) [µM] | GI50 (KM12 colon) [µM] | also measured
CC[C@H](Nc1ncnc2nc[nH]c12)c1nc2cccc(F)c2c(=O)n1-c1ccccc1 | > 74.4 | > 100 | 10 | 22.1 | 4.22 | 48.1 | 73.6 | > 100 | 30.1 | > 100 | 7.37 | > 67.4 | 34.7 | > 100 | 38.2 | > 100 | 0.783 | 6.15 | 5.12 | 24.2 | TGI (KM12 colon): > 100 µM; GI50 (ACHN renal): 13.2 µM; TGI (ACHN renal): > 100 µM; GI50 (MCF7 breast): 7.96 µM; TGI (MCF7 breast): 69.5 µM
CC(C)Nc1cc(-c2c[nH]c(C(=O)N[C@H](CO)c3cccc(Cl)c3)c2)c(Cl)cn1 | 9.24 | 22.5 | 1.66 | 6.58 | 3.37 | 15.4 | 1.37 | 17.1 | 4.5 | 17.9 | 1.04 | 16.5 | 2.88 | 19.4 | 0.132 | 4.12 | 13.4 | 26.2 | 3.23 | 0.547 | TGI (UO-31 renal): 16.8 µM; TGI (KM12 colon): 12.8 µM; GI50 (ACHN renal): 2.95 µM; TGI (ACHN renal): 16.3 µM; GI50 (MCF7 breast): 3.72 µM; TGI (MCF7 breast): 15.9 µM

Source: PubChem BioAssay (NCI)
